Measured values reported in PMC10823224, “γδ T cell antigen receptor polyspecificity enables T cell responses to a broad range of immune challenges” (Proceedings of the National Academy of Sciences of the …, 2024).

Molecular target: T1, human recombinant TG2 (Homo sapiens, UniProt P21980)
T1 construct: gene TGM2; recombinant, enzymatically active
T1 sequence (P21980 2-687): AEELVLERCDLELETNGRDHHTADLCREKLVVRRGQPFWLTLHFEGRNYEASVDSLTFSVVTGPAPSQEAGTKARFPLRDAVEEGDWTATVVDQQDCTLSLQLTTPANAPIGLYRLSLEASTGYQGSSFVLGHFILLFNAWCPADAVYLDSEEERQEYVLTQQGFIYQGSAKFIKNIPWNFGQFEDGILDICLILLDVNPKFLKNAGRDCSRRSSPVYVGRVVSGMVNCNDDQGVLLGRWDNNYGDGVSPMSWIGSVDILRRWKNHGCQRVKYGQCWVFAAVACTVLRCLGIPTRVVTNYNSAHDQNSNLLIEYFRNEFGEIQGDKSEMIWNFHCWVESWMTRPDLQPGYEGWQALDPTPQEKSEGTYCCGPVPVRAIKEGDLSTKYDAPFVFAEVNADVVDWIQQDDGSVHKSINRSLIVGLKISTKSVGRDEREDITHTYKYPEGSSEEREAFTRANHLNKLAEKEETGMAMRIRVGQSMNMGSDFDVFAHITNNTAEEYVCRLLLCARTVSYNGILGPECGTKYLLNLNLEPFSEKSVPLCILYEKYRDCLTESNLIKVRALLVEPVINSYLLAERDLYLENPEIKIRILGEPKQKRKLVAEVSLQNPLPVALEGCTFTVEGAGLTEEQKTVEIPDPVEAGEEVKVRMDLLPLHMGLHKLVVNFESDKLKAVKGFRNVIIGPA
Assay: in vitro serotonylation of Rac1 peptide, ESI-MS
Format: biochemical
Details: 1 mM serotonin, biotinylated Rac1 peptide co-substrate, 10 mM CaCl2, pH 7.4, 37 °C overnight

SMILES: NCCc1c[nH]c2ccc(O)cc12 [5-HT]
- in vitro serotonylation of Rac1 peptide, ESI-MS: the peptide was modified with a single serotonin moiety
